Here are results for one compound from PMC3790268 (Bioorganic & medicinal chemistry letters, 2013).

The target of this experiment is rat nNOS (Rattus norvegicus, UniProt P29476). To be noted: compared with (R,R)-16a, (S,S)-16b and (R)-6b.

As to `Cc1cc(N)nc(COC[C@@H](N)[C@H](C)OCc2cc(C)cc(N)n2)c1` [(S,R)-16c], the “decreased affinity for nNOS” value is 10 fold.
